Entries after “also recorded” stand apart in the source; their conditions may differ.
How the values were obtained:
Type in all cases: cell-based
[1] = test system: P388 murine leukemia cell lines; experiment: In vitro proliferation of P388 cells (MTT); settings: 48-h exposure; for IC50: value in parentheses
Protocol: (§1) Discodermolide and discodermolide analogs were analyzed as to their effects on proliferation of A549 human adenocarcinoma and P388 murine leukemia cell lines. P388 cells were obtained from Dr. R. Camalier, National Cancer Institute, Bethesda, MD, and A549 cells were obtained from American Type Culture Collection, Rockville, MD. All cell lines were maintained in tissue culture medium (TCM; Roswell Park Memorial Institute RPMI 1640 supplemented with 100 U/mL penicillin, […], 60 […], 18 mM HEPES, 0.05 mg/mL gentamicin (Life Technologies, Gaithersburg, MD) and 10% fetal bovine serum) and cultured in plastic tissue culture flasks at 37° C. in humidified air containing 5% CO2. Stock cultures of P388 cells were subcultured 1:20 in fresh TCM every 2 to 3 days. Stock cultures of A549 cells were subcultured 1:10 every 3 to 4 days. To assess the antiproliferative effects of agents against the cells, 200 μL cultures (96-well tissue culture plates, Nunc, Denmark) were established at 1 ×10^5 cells/mL in TCM or TCM containing the test agent at 0.03-5.0 μg/mL. After 48-h exposures, P388 cells were enumerated using 3-[4,5-dimethylthiazol-2-yl]-2,5-diphenyltetrazolium bromide (MTT) as described in the literature (M. C. Alley, et al., Cancer Res. 48:589, 1988). A549 cells were enumerated in the same manner after 72 hours exposure. The results were expressed as percent inhibition compared to the negative (no drug) control. Positive drug controls of varying dilutions of 5-fluorouracil and adriamycin (Sigma Chemical Co., St Louis, MO) were included to monitor drug sensitivity of the cell line.
(§2) To quantitate the effects on cell proliferation and resulting IC50 values, 75 μL of warm growth media containing 5 mg/mL MTT is added to each well, cultures returned to the incubator, and left undisturbed for 3 hours. To spectrophotometrically quantitate formation of reduced formazan, plates are centrifuged (500×g, 10 minutes), culture fluids removed by aspiration, and 200 μL of acidified isopropanol (2 mL concentrated HCl /liter isopropanol) added per well. The absorbance of the resulting solutions is measured in a plate reader (TECAN Spectra SLT; TECAN U.S., Research Triangle Park, N.C.) at 570 nm and a 650 nm reference filter. The absorbance of test wells is divided by the absorbance of drug-free wells, and the concentration of agent that results in 50% of the absorbance of untreated cultures (IC50) is determined by linear regression of logit-transformed data (D. J. Finney, Statistical Method in Biological Assay, third ed., pp. 316-348, Charles Griffin Co., London, 1978). A linear relationship between tumor cell number and formazan production has been routinely observed over the range of cell densities observed in these experiments. The two standard drug controls (indicated above) are included in each assay as a check to monitor the drug sensitivity of each of the cell lines and IC50 values are determined for each drug-cell combination.

[2] = test system: A549 human adenocarcinoma tumor cells; experiment: Microtubule bundling patterns in tumor cells by immunofluorescence; parameters: key to Microtubule bundling in A549 cells: −: no effect; +/−: minimal or questionable effect; +: weak effect; ++: strong effect; +++: very strong effect equivalent to discodermolide; settings: for Microtubule bundling in A549 cells: subjective rating versus discodermolide
Protocol: Discodermolide and discodermolide analogs were evaluated as to their effects on the morphology of the microtubule network of cells using mouse anti-alpha-tubulin monoclonal antibody.
On day one, 7×10^4 adherent A549 human adenocarcinoma tumor cells were cultured in TCM overnight at 37° C. in 5% CO2 on 22 mm^2 cover slips in 6-well microtiter plates. On day two, TCM was removed and replaced with 10-1000 nM discodermolide or analog in TCM or TCM without drug (control) and incubated overnight at 37° C. in 5% CO2. On day three, TCM was removed and cells attached to cover slips were fixed with a 3.7% formaldehyde solution in Dulbecco's PBS for 10 minutes at room temperature. Cells were permeabilized with a 2% Triton X-100 solution, 2 mL per well, for 5 minutes at room temperature and washed twice in Dulbecco's PBS prior to staining.
To each well containing cells attached to cover slips a 2 mL volume of mouse anti- alpha-tubulin monoclonal antibody (Cat# T-5168, Sigma Chemical Co., St. Louis, Mo.) diluted 1:1000 in Dulbecco's phosphate buffered saline (D-PBS) was added and the cells incubated at room temperature for 45 minutes. Cover slips were rinsed once with D-PBS. A 2 mL volume of goat-anti-mouse-IgG-FITC conjugated antibody (Cat# T-5262, Sigma Chemical Co., St. Louis, Mo.) diluted 1:1000 in D-PBS was added and the cells incubated at room temperature for 45 minutes. Cover slips were rinsed once in D-PBS and DNA was stained with 0.02 mg/mL propidium iodide together with 0.1 mg/mL of ribonuclease A (RNAse) A in D-PBS at 37° C. for 30 minutes. Cover slips were rinsed three times with sterile distilled water, air-dried and mounted on slides with SlowFade™ antifade solution (Molecular Probes, Eugene, Oreg.) and observed under the microscope using epifluorescence illumination for the presence of abnormal aster and microtubule bundle formations.

[3] = test system: A549 human lung cells; experiment: Cell cycle progression by flow cytometry
Protocol: Cell cycle studies were initiated in order to pinpoint a specific phase within the cell cycle in which discodermolide analogs were exerting their antiproliferative effect. A549 human lung cells were used as cell cycle targets to compare the effects of discodermolide and discodermolide analogs on perturbation of the cell cycle. Cell cycle analyses were performed as follows: A549 cells were incubated at 37° C. in 5% CO2 in air in the presence or absence of varying concentrations of discodermolide or discodermolide analogs for 24 hr. Cells were harvested, fixed in ethanol, washed, and stained with 0.02 mg/mL of propidium iodide (P.I.) together with 0.1 mg/mL of RNAse A. Stained preparations were analyzed on a Coulter EPICS ELITE flow cytometer with 488 nm excitation. Fluorescence measurements and resulting DNA histograms were collected from at least 10,000 P.I. stained cells at an emission wavelength of 690 nm. Raw histogram data was further analyzed using a cell cycle analysis program (Multicycle, Phoenix Flow Systems).

[4] = test system: A549 human adenocarcinoma; experiment: In vitro proliferation of A549 cells (MTT); settings: 72 hours exposure; for IC50: value in parentheses
Protocol: as §1, §2

| SMILES | IC50 P388 cells [1] | IC50 [1] | Microtubule bundling observation ([2]; 100 nM) | Microtubule bundling observation ([2]; 1000 nM) | Microtubule bundling in A549 cells ([2]; Table 12) | Cell cycle effects (100 nM) ([3]; 100 nM, 24 hr, A549) | IC50 A549 cells [4] | IC50 [4] | Cells with multiple aster formations, share of the population undergoing mitosis ([2]; 100 nM) | Discodermolide concentration giving equivalent morphological changes ([2]; analog at 1000 nM) | Microtubule bundling in A549 cells ([2]; Table 11) | Cell cycle effects ([3]; concentration not given) | Discodermolide concentration giving equivalent morphological changes ([2]; analog at 100 nM) | Microtubule bundling observation ([2]; 10 nM) | Cell population accumulated in the G2/M phase ([3]; 1000 nM, 24 hour incubation) | Cell cycle effects ([3]; concentrations lower than 1000 nM) |
| --- | --- | --- | --- | --- | --- | --- | --- | --- | --- | --- | --- | --- | --- | --- | --- | --- |
| CCCCC(C)C(OC(N)=O)C(C)C(O)C(C)CC(C)=CC(C)C(O)C(C)CCC(O)CC1OC(=O)C(C)C(O)C1C (centres unmarked) [8,21,23-Hexahydrodiscodermolide (XII), 8,21,23-hexahydrodiscodermolide] | 0.02 µg/mL | 33.8 nM | Microtubule bundling was evident | Microtubule bundling was evident | ++ | small percent increase in the cells accumulated at the G2/M phase; also recorded: high percentage of apoptosis | 0.04 µg/mL | 67.7 nM | – | – | – | – | – | – | – | – |
| C=C/C=C\[C@H](C)[C@H](OC(N)=O)[C@@H](C)[C@H](O)[C@@H](C)C/C(C)=C\[C@H](C)[C@@H](O)[C@@H](C)/C=C\[C@@H](O)C[C@@H]1OC(=O)[C@@H](C)[C@@H](O)[C@H]1C [2-Epidiscodermolide (IV), 2-epidiscodermolide] | 0.08 µg/mL | 134 nM | no microtubule matrix bundling | Some minor, peripheral, polymerization of microtubule matrix | – | – | 0.04 µg/mL | 67 nM | less than 10% | ~20 nM | + | Apoptosis and weak G2/M block | – | – | – | – |
| C=CC=CC(C)C(OC(N)=O)C(C)C(O)C(C)CC(C)=CC(C)C(O)C(C)C=CC(O)CC1OC(=O)CC(O)C1C (centres unmarked) [2-Desmethyldiscodermolide (II), 2-desmethyldiscodermolide] | 0.1 µg/mL | 172 nM | Some thin or short peripheral microtubule bundling | extensive microtubule bundling | – | – | 0.07 µg/mL | 120 nM | – | 1000 nM | +++ | very strong apoptotic (sub-G1 peak) effects as well as an increase in the percentage of cells residing in the G2/M phase | 20-50 nM | – | – | – |
| CCCCC(C)C(OC(N)=O)C(C)C(O)C(C)CC(C)=CC(C)C(O)C(C)CCCCC1OC(=O)C(C)C(O)C1C (centres unmarked) [7-deoxy-8,21,23-hexahydrodiscodermolide] | 0.18 µg/mL | 309 nM | small amount of microtubule bundling visible in some cells | strong microtubule bundling | ++ | – | 0.22 µg/mL | 377 nM | – | 100 nM | – | – | ~10 nM | no visible effect on the microtubule matrix | Approximately 50% | did not produce any cell cycle effects |
| C=CC=CC(C)C(O)C(C)C(O)C(C)CC(C)=CC(C)C(O)C(C)C=CC(O)CC1OC(=O)C(C)C(O)C1C (centres unmarked) [19-Desaminocarbonyldiscodermolide (III), 19-desaminocarbonyldiscodermolide] | 0.07 µg/mL | 128 nM | some microtubule bundling | moderate amount of microtubule bundling | – | – | 0.045 µg/mL | 74 nM | – | 50-100 nM | ++ | Strong apoptosis; moderate G2/M block | 10-20 nM | – | – | – |
